“And” between values parts separate entries of the source, which are not always exact repeats. Equal values may be shown once.
How the values were obtained:
[1] = biological target: T1, TbPFK (Trypanosoma brucei brucei, UniProt O15648); experiment: Surface plasmon resonance (SPR); assay type: binding
T1 construct: made in house; host or cells: Escherichia coli C41 (pET28a, codon optimised gene)
T1 sequence (O15648 1-487): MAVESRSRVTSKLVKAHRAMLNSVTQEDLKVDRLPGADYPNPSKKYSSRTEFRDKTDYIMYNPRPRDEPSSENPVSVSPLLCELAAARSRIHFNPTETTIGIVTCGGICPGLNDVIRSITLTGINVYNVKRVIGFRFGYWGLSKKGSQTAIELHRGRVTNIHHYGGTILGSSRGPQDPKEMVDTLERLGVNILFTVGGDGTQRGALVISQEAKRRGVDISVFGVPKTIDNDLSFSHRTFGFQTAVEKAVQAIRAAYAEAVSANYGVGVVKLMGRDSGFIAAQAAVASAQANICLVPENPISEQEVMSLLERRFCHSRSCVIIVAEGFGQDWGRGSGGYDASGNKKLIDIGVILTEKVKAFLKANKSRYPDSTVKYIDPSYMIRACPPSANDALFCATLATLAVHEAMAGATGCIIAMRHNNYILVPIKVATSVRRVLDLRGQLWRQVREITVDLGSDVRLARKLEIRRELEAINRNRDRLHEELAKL
Description: SPR measurements were performed using a BIAcore T200 instrument (GE Healthcare). Active N-terminally His6-tagged TbPFK surfaces were generated using a His-tag capture and coupling onto Ni^2+‐nitrilotriacetic acid sensor chips. Following Ni^2+ priming (30 s injection of 500 μM NiCl2 at 5 μl min^−1), dextran surface carboxylate groups were minimally activated by an injection of 0.2 M EDC; 50 mM NHS at 5 μl min^−1 for 240 s. TbPFK (at concentrations between 10 and 400 nM), in 10 mM NaH2PO4, pH 7.5; 150 mM NaCl; 50 μM EDTA; 0.05% surfactant p20, was captured via the hexa-His-tag and simultaneously covalently stabilised to between 1500 RU and 3100 RU, by varying the contact time. Immediately following the capture/stabilisation a single 15 s injection of 350 mM EDTA and 50 mM imidazole in 10 mM NaH2PO4, pH 7.5; 150 mM NaCl; 50 mM EDTA; 0.05% surfactant p20, at 30 μl min^−1, was used to remove non-covalently bound protein, followed by a 180 s injection of 1 M H2N(CH2)2OH, pH 8.5 at 5 μl min^−1.
Active N-terminally His6-tagged TbPFK surfaces were generated using a His-tag capture and coupling method described previously (2). The surface density on the SPR chip = 1500 RU. A 1:1 binding model has been fitted to each sensorgram trace (black). All measurements were at 25 °C. […] Source data are provided as a Source Data file.

[2] = biological target: T1, TbPFK; experiment: ALDO/G3PDH/TIM linked enzyme assay for measuring PFK inhibition; assay type: biochemical; parameters: key: absorbance at 340 nm (NADH)
Description: In the PFK/PYK/LDH assay, the linked PYK activity acts to convert the ADP produced by PFK back to ATP. As ATP is an inhibitor of human PFK (but not TbPFK) at concentrations higher than ~0.5 mM the regeneration of ATP is likely to affect the assay readout. An alternative linked assay was therefore developed using PFK/aldolase (ALDO)/glycerol-3-phosphate dehydrogenase (G3PD)/triosephosphate isomerase (TIM). In this assay F16BP produced by PFK is subsequently converted by aldolase into dihydroxyacetone phosphate (DHAP) and glyceraldehyde 3-phosphate (GA3P). TIM interconverts GA3P and DHAP, and DHAP is reduced to glycerol 3-phosphate by G3PD, alongside the oxidation of NADH to NAD^+, which was measured by observing the change in UV absorbance at 340 nm for 10 minutes at 25° C using a Spectramax© M5 Multimode plate reader.
The assay buffer consisted of 50 mM TEA, 100 mM KCl, 10 mM MgCl2, 10% glycerol, 1 mM Tris(2-carboxyethyl)phosphine (TCEP), pH 7.4. Assay mix consisted of 5 U/ml G3PD (Sigma-Aldrich G6880), 2.5 U/ml ALDO (Sigma-Aldrich A2714), 25 U/ml TIM (Sigma-Aldrich T6258), and 1.25 mM NADH. ATP and F6P were obtained from Sigma-Aldrich (A2383 and F3627, respectively). All ligands and substrates (including ATP) were used at pH 7.4). 40 µl of assay mix, followed by 45 µl assay buffer, 4 µl of 0.1 mg/ml PFK and 1 µl of 100x serially diluted inhibitors were added to a non-binding, clear 96-well plate (Greiner Bio-One 655901) and incubated at RT for 10 minutes. The reaction was started by addition of 10 µl of 6 mM F6P (Supplementary Table 1).

CN(C)CCn1ccc2c(ccn2Cc2ccc(Cl)c(Cl)c2)c1=O [CTCB-405, 1-[(3,4-Dichlorophenyl)methyl]-5-[2-(dimethylamino)ethyl] pyrrolo[3,2-c]pyridin-4-one]
koff [1]: 0.079 s⁻¹
kon [1]: 960000 M⁻¹ s⁻¹
Kd ([1]; 25 °C): 82 nM

CN(C)CCn1ccc2c(ccn2Cc2ccc(Cl)c(Cl)c2)c1=O [CTCB 405]
TbPFK reaction time course reading (Figure 6a) ([2]; 0.02 uM CTCB 405, time 0.104167): 0.5676 and 0.5291
TbPFK reaction time course reading (Figure 6a) ([2]; 0.02 uM CTCB 405, time 0.121528): 0.545 and 0.5077
TbPFK reaction time course reading (Figure 6a) ([2]; 0.02 uM CTCB 405, time 0.138889): 0.5241 and 0.488
TbPFK reaction time course reading (Figure 6a) ([2]; 0.02 uM CTCB 405, time 0.15625): 0.5057 and 0.4696
TbPFK reaction time course reading (Figure 6a) ([2]; 0.02 uM CTCB 405, time 0.173611): 0.4873 and 0.4524
TbPFK reaction time course reading (Figure 6a) ([2]; 0.02 uM CTCB 405, time 0.190972): 0.4705 and 0.4366
TbPFK reaction time course reading (Figure 6a) ([2]; 0.05 uM CTCB 405, time 0.104167): 0.6118 and 0.5698
TbPFK reaction time course reading (Figure 6a) ([2]; 0.05 uM CTCB 405, time 0.121528): 0.5919 and 0.5511
TbPFK reaction time course reading (Figure 6a) ([2]; 0.05 uM CTCB 405, time 0.138889): 0.5731 and 0.5324
TbPFK reaction time course reading (Figure 6a) ([2]; 0.05 uM CTCB 405, time 0.15625): 0.5537 and 0.5159
TbPFK reaction time course reading (Figure 6a) ([2]; 0.05 uM CTCB 405, time 0.173611): 0.5368 and 0.4994
TbPFK reaction time course reading (Figure 6a) ([2]; 0.05 uM CTCB 405, time 0.190972): 0.5212 and 0.4835
TbPFK reaction time course reading (Figure 6a) ([2]; 0.43 uM CTCB 405, time 0.104167): 0.7703 and 0.7388
TbPFK reaction time course reading (Figure 6a) ([2]; 0.43 uM CTCB 405, time 0.121528): 0.7663 and 0.7359
TbPFK reaction time course reading (Figure 6a) ([2]; 0.43 uM CTCB 405, time 0.138889): 0.7635 and 0.7314
TbPFK reaction time course reading (Figure 6a) ([2]; 0.43 uM CTCB 405, time 0.15625): 0.7593 and 0.7286
TbPFK reaction time course reading (Figure 6a) ([2]; 0.43 uM CTCB 405, time 0.173611): 0.7551 and 0.7249
TbPFK reaction time course reading (Figure 6a) ([2]; 0.43 uM CTCB 405, time 0.190972): 0.7517 and 0.7206
TbPFK reaction time course reading (Figure 6a) ([2]; 0.43 uM CTCB 405, time 0.208333): 0.7473 and 0.7169
TbPFK reaction time course reading (Figure 6a) ([2]; 1.29 uM CTCB 405, time 0.104167): 0.8081 and 0.7679
TbPFK reaction time course reading (Figure 6a) ([2]; 1.29 uM CTCB 405, time 0.121528): 0.808 and 0.7688
TbPFK reaction time course reading (Figure 6a) ([2]; 1.29 uM CTCB 405, time 0.138889): 0.8069 and 0.768
TbPFK reaction time course reading (Figure 6a) ([2]; 1.29 uM CTCB 405, time 0.15625): 0.8064 and 0.7673
TbPFK reaction time course reading (Figure 6a) ([2]; 1.29 uM CTCB 405, time 0.173611): 0.8063 and 0.7675
TbPFK reaction time course reading (Figure 6a) ([2]; 1.29 uM CTCB 405, time 0.190972): 0.8048 and 0.7672
TbPFK reaction time course reading (Figure 6a) ([2]; 3.88 uM CTCB 405, time 0.104167): 0.8165 and 0.7707
TbPFK reaction time course reading (Figure 6a) ([2]; 3.88 uM CTCB 405, time 0.121528): 0.8167 and 0.7708
TbPFK reaction time course reading (Figure 6a) ([2]; 3.88 uM CTCB 405, time 0.138889): 0.8177 and 0.7708
TbPFK reaction time course reading (Figure 6a) ([2]; 3.88 uM CTCB 405, time 0.15625): 0.8174 and 0.7711
TbPFK reaction time course reading (Figure 6a) ([2]; 3.88 uM CTCB 405, time 0.173611): 0.8172 and 0.7718
TbPFK reaction time course reading (Figure 6a) ([2]; 3.88 uM CTCB 405, time 0.190972): 0.8172 and 0.7712
TbPFK reaction time course reading (Figure 6a) ([2]; 11.66 uM CTCB 405, time 0.104167): 0.818 and 0.7732
TbPFK reaction time course reading (Figure 6a) ([2]; 11.66 uM CTCB 405, time 0.121528): 0.8194 and 0.7744
TbPFK reaction time course reading (Figure 6a) ([2]; 11.66 uM CTCB 405, time 0.138889): 0.8194 and 0.7745
TbPFK reaction time course reading (Figure 6a) ([2]; 11.66 uM CTCB 405, time 0.15625): 0.8194 and 0.7742
TbPFK reaction time course reading (Figure 6a) ([2]; 11.66 uM CTCB 405, time 0.173611): 0.8203 and 0.7754
TbPFK reaction time course reading (Figure 6a) ([2]; 11.66 uM CTCB 405, time 0.190972): 0.82 and 0.776
TbPFK reaction time course reading (Figure 6a) ([2]; 35 uM CTCB 405, time 0.104167): 0.7782 and 0.7773
TbPFK reaction time course reading (Figure 6a) ([2]; 35 uM CTCB 405, time 0.121528): 0.7782 and 0.776
TbPFK reaction time course reading (Figure 6a) ([2]; 35 uM CTCB 405, time 0.138889): 0.7789 and 0.7774
TbPFK reaction time course reading (Figure 6a) ([2]; 35 uM CTCB 405, time 0.15625): 0.7788 and 0.7781
TbPFK reaction time course reading (Figure 6a) ([2]; 35 uM CTCB 405, time 0.173611): 0.779 and 0.7789
TbPFK reaction time course reading (Figure 6a) ([2]; 35 uM CTCB 405, time 0.190972): 0.7794 and 0.7785

From paper PMC7887271, “Fast acting allosteric phosphofructokinase inhibitors block trypanosome glycolysis and cure acute African trypanosomiasis in mice” (Nature Communications, 2021)
